Experimental data reported in patent publication US11160767B2, “4,4′-trans-dihydroxystilbene for use in treating cancer” (The George Washington University, a Congressionally …, priority 2017, dated 2021).

What was measured:
PANC-1 = assay: In vitro cytotoxicity (SRB assay), PANC-1; type: cell-based; details: Homo sapiens, 72 hours
Protocol: (§1) Cell lines and cell culture. HCT116, U205, PANC-1, MDA-231 cell lines were purchased from the American Type Culture Collection (Rockville, Md., US). Cells were cultured in the DMEM medium (Lonza, Basel, Switzerland) containing 10% fetal bovine serum (Gibco, Grand Island, N.Y., US), 100 Units/ml penicillin, 100 Units/mL streptomycin, […] L-glutamine (Gibco, Grand Island, N.Y., US) at 37° C. in a humidified atmosphere with 5% CO2.
(§2) In vitro cytotoxicity assays. […] SRB assay (Vichai and Kirtikara, 2006) was performed and the absorbance at 510 nm was read with a plate reader. The proliferation rate was calculated according to the Manufacturer's instruction. The IC50 value for each compound was determined from dose-effect relationship using the CompuSyn software (version 1.0.1; CompuSyn, Inc, Paramus, N.J.) (Chou, 2006). Cell proliferating doubling time was monitored over a period of 72 hours.

MDA-231/GFP = assay: In vitro cytotoxicity (SRB assay), MDA-231/GFP; type: cell-based; details: Homo sapiens, MDA-MB-231, 72 hours
Protocol: as §1, §2

U2OS = assay: In vitro cytotoxicity (SRB assay), U2OS; type: cell-based; details: Homo sapiens, 72 hours
Protocol: as §1, §2

HCT116 = assay: In vitro cytotoxicity (SRB assay), HCT116; type: cell-based; details: Homo sapiens, HCT-116, 72 hours
Protocol: as §1, §2

[1] = test system: HCT116 cells, U2OS cells, MDA-231/GFP cells, and PANC-1 cells; assay: Cytotoxicity across the four cancer cell lines (SAR summary); type: cell-based; details: range over four cell lines
Protocol: In vitro cytotoxicity assays. Cells growing in the Log phase were treated with various compounds at different concentrations (generally 0.137 to 100 μM) for 72 hours at 37° C. SRB assay (Vichai and Kirtikara, 2006) was performed and the absorbance at 510 nm was read with a plate reader. The proliferation rate was calculated according to the Manufacturer's instruction. The IC50 value for each compound was determined from dose-effect relationship using the CompuSyn software (version 1.0.1; CompuSyn, Inc, Paramus, N.J.) (Chou, 2006). Cell proliferating doubling time was monitored over a period of 72 hours.
Based on identification of resveratrol as a lead compound in the drug screening assays, the anti-cancer activity of synthetic resveratrol analogs (FIG. 2) was next investigated and compared to resveratrol using HCT116 cells, U2OS cells, MDA-231/GFP cells, and PANC-1 cells.
The structure activity relationship (SAR) of the derivatives of resveratrol were considered.

HCT116 cells [2] = assay: DNA fiber assay; type: cell-based, human; details: added 2 hours prior to labeling
Protocol: Thus, the effect of DHS on DNA replication and cell cycle progression was investigated. Replication fork speeds were examined by DNA fiber assay (FIG. 7A). Briefly, DHS, hydroxyurea (Hu), or Aphidicolin (Aph) was added to HCT116 cells 2 hours prior to labeling of DNA with iododeoxyuridine (IdU) and/or chlorodeoxyuridine (CldU).

HCT116 xenograft tumor = HCT116 xenograft tumor model; type: in vivo, nude mice; details: Day 38; DHS 50 mg/kg i.p. 14 consecutive days; cisplatin 8 mg/kg i.p.
Protocol: Xenograft mouse models. […] In xenograft studies, HCT116 (3×10^6 cells) and IGROV3/CP2 (5×10^6 cells) suspended in 100 μl of phosphate buffered saline (PBS, pH 7.4) were injected subcutaneously into the lower flank of the mice. Testing compounds were dissolved in DMSO/Tween 80/saline (10:10:80; v/v/v) buffer and were used to treat animals through intraperitoneal (i.p.) injection. […] The body weight of animals was measured throughout the study. Tumor diameters were measured with digital calipers, and the tumor volume in mm^3 was calculated by the formula: Volume=(width)^2×length/2.
HCT116 cells (5×10^6) were injected subcutaneously in nude mice and grown to approximately 100 mm^3 in volume. […] To study the preclinical toxicity of DHS, samples of hearts, livers, spleens, lung, and kidneys were collected on Day 38 and sections were stained for histological examination.

RRM1 = biological target: T1, RRM1 (Homo sapiens, UniProt P23921); assay: Thermal shift assay in HCT116 cells, RRM1; type: cell-based
T1 construct: endogenous in cells; host or cells: HCT116
Protocol: (§3) To investigate binding of DHS to RRM1 and RRM2, a thermal shift assay was performed in HCT116 cells treated with DMSO (vehicle), resveratrol, DHS, gemcitabine, or hydroxyurea (Hu). Gemcitabine is known to bind RRM1 (Plunkett et al., 1995 and Chen et al., 2011), and Hu has been reported to bind RRM2 (Thelander et al., 1985). […] DHS stabilized RRM2 protein in a dose responsive manner (5 to 20 μM DHS; FIG. 11A). To rule out nonspecific effects of DHS on RRM2, an in vitro thermal shift assay was conducted. Purified RRM1 and RRM2 were mixed and then incubated with DHS or Hu for 4 hours before performing the assay.

HCT116 cells [3] = assay: dNTP amount in treated cells; type: cell-based, human
Excerpt: The effect of DHS on dNTP synthesis was investigated by measuring the amount of dNTPs in DHS-treated HCT116 cells.

RRM2 = biological target: T2, RRM2 (Homo sapiens, UniProt P31350); assay: Thermal shift assay in HCT116 cells, RRM2; type: cell-based
T2 construct: endogenous in cells; host or cells: HCT116
T2 sequence (P31350 1-389): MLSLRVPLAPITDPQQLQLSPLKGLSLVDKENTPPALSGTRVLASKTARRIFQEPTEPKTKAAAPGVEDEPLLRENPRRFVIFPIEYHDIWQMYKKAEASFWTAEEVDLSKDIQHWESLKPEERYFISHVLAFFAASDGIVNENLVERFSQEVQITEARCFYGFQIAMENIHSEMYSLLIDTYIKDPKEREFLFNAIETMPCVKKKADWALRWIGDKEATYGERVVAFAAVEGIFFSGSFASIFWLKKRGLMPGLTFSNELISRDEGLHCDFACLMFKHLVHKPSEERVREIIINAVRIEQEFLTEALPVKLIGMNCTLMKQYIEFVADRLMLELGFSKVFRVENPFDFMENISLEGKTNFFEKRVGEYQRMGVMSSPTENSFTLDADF
Protocol: as §3

HCT116 cells [4] = assay: Cell-cycle assay; type: cell-based, human; details: 10 μM
Protocol: A cell-cycle assay was conducted to study whether DHS would affect cell-cycle progression.

And-1 = assay: High-throughput screening, HEK-293T-And-1-Luc cells; type: cell-based; details: 48 hours
Protocol: High-throughput drug screening was performed using a HEK-293T-And-1-Luc cell line expressing Luciferase fused to And-1 (FIG. 1A). The level of cellular Luciferase activity was reflective of the level of And-1 protein. […] In the drug screening assays, cells were treated with testing drugs for 48 hours.

T1 sequence (P23921 whole entry): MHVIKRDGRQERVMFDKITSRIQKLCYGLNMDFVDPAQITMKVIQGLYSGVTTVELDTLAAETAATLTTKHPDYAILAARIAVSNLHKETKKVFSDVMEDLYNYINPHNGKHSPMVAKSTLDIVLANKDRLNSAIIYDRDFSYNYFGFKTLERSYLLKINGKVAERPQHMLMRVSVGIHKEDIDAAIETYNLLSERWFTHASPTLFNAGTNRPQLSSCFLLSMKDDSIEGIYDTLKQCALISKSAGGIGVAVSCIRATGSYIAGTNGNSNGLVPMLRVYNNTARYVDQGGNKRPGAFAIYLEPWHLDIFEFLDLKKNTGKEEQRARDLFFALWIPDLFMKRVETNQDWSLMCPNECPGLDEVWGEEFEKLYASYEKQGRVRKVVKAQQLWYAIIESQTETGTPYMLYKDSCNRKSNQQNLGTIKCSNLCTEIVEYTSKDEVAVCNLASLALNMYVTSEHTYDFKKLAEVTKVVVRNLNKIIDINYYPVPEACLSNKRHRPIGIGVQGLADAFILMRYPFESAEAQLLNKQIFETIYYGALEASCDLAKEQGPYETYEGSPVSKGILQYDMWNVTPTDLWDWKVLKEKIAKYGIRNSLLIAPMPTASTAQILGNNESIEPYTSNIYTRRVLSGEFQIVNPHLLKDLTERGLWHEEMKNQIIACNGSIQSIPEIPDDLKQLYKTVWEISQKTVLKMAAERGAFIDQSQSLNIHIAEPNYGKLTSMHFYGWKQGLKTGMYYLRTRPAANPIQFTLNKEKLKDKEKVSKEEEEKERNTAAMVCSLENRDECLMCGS

| SMILES | IC50 (PANC-1) [µM] | IC50 (MDA-231/GFP) [µM] | IC50 (U2OS) [µM] | IC50 (HCT116) [µM] | IC50 [1] [µM] | DNA replication stalling (HCT116 cells [2]) | Reduction in tumor volume as compared with the vehicle control group (HCT116 xenograft tumor) [%] | RRM1 levels in thermal shift assay (binding) (RRM1) | dNTP synthesis (HCT116 cells [3]) | RRM2 levels in thermal shift assay (binding) (RRM2) | Effect on cell-cycle progression (HCT116 cells [4]) | And-1 protein level (luciferase activity) (And-1) |
| --- | --- | --- | --- | --- | --- | --- | --- | --- | --- | --- | --- | --- |
| Oc1ccc(/C=C/C=C/c2ccc(O)cc2)cc1 [#1, 4,4′-((1E,3E)-buta-1,3-diene-1,4-diyl)diphenol] | 308 ± 86.3 | 70.7 ± 16.7 | 1.1 ± 1.05 | 6.48 ± 3.98 |  |  |  |  |  |  |  |  |
| Oc1ccc(/C=C/C=C/C=C/c2ccc(O)cc2)cc1 [#2, 4,4′-((1E,3E,5E)-hexa-1,3,5-triene-1,6-dyl)diphenol] | 123 ± 93.4 | 57.9 ± 15.4 | 0.37 ± 0.28 | 11.7 ± 6.46 |  |  |  |  |  |  |  |  |
| Oc1ccc(/C=C/c2ccccc2)cc1 [#3, (E)-4-styrylphenol] | 109 ± 63.7 | 45.1 ± 13.9 | 23.6 ± 3.83 | 32.2 ± 5.88 | 23.6 to 109 |  |  |  |  |  |  |  |
| Oc1ccc(/C=C/c2ccccc2)cc1O [#4, (E)-4-styrylbenzene-1,2-diol] | 57.1 ± 44.7 | 13.7 ± 2.98 | 33.6 ± 28 | 50.2 ± 9.72 | 13.7 to 57.1 |  |  |  |  |  |  |  |
| Oc1ccc(/C=C/C=C/c2ccccc2)cc1O [#5, 4-((1E,3E)-4-phenylbuta-1,3-dien-1-yl)benzene-1,2-diol] | 18.4 ± 8.87 | 5.47 ± 4.02 | 4.66 ± 2.67 | 9.5 ± 3.64 |  |  |  |  |  |  |  |  |
| C[C@@]1(CO)[C@H](O)CC[C@@]2(C)[C@H]1CC[C@H]1C[C@@H]3C[C@@]12CC[C@]3(O)CO [Aph, Aphidicolin, reference compound] |  |  |  |  |  | caused DNA replication stalling |  |  |  |  |  |  |
| N.N.[Cl][Pt][Cl] [Cisplatin, reference compound] |  |  |  |  |  |  | ~50 |  |  |  |  |  |
| Nc1ccn([C@@H]2O[C@H](CO)[C@@H](O)C2(F)F)c(=O)n1 [Gemcitabine, reference compound] | 7.43 ± 5.24 | 0.03 ± 0.04 | 0.51 ± 0.17 | 0.046 ± 0.041 |  |  |  | robust levels of RRM1 |  |  |  |  |
| NC(=O)NO [Hydroxyurea, reference compound] | 2400 ± 485 | 704 | 262 ± 181 | 306 ± 61.1 |  | caused DNA replication stalling |  |  | did not | robust levels of RRM2 |  |  |
| Oc1ccc(/C=C/c2cc(O)cc(O)c2)cc1 [Resveratrol, 3,5,4′-trihydroxy-trans-stilbene, reference compound] | 82 ± 24.4 | 42.4 ± 4.9 | 30.2 ± 4.22 | 24.5 ± 3.32 | 24.5 to 82 |  |  |  | did not |  | did not change the cell-cycle population | causing down-regulation of And-1 protein |
